According to patent US11629171B2, “Beta-hairpin peptidomimetics” (POLYPHOR AG, priority 2017, dated 2023):
In brackets after ≈: the same amount, converted by molar mass. Like-named read-outs stand apart in the source and are kept apart here. Where a SMILES comes first, the peptide text is derived from it. Bridges are numbered along the chain shown (N, C = ends). Roman numbers before positions name the chains, in order. [ ]: non-standard residue; d: D form. The star is where a group is joined. Tyrosinol = OC[C@H](Cc1ccc(O)cc1)N*; Tle = CC(C)(C)[C@H](N)C(=O)O; Hiv = CC(C)[C@H](O)C(=O)O; dDab = NCC[C@@H](N)C(=O)O; hSer = N[C@@H](CCO)C(=O)O; NHCH(CH2OH)2 = OCC(CO)N*; Dab = NCC[C@H](N)C(=O)O

How the values were obtained:
Format in all cases: cell-based
[1] = system: Acinetobacter baumannii 872842
Summary of the method: (§1)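 Cation-adjusted MH-II broth, 0.002% polysorbate 80, inoculum near 10^6 CFU/mL. MIC read visually after 18-20 h, 35° C; units μg/mL.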

[2] = system: Acinetobacter baumannii DSM 30008
Summary of the method: as §1

[3] = system: Enterobacter cloacae 848840
Summary of the method: as §1

[4] = system: Escherichia coli 926415
Summary of the method: as §1

[5] = system: Escherichia coli ATCC 25922
Summary of the method: as §1

[6] = system: Klebsiella pneumoniae 968733
Summary of the method: as §1

[7] = system: Klebsiella pneumoniae SSI #3010
Summary of the method: as §1

[8] = system: Pseudomonas aeruginosa ATCC 27853
Summary of the method: as §1

[9] = system: human red blood cells (hRBC); test: Hemolysis
Summary of the method: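 Read-out is supernatant absorbance at 540 nm, normalised to full lysis by 2% Triton X-100 and zero lysis by PBS with 10% water. Peptides (200 μg/mL) were exposed to 20% v/v washed human erythrocytes at 37° C for 1 h under shaking.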

Structure (SMILES) | MIC [1]; 872842 [µg/mL] | MIC ([2]; DSM 30008) [µg/mL] | MIC [3]; 848840 [µg/mL] | MIC [4]; 926415 [µg/mL] | MIC ([5]; ATCC 25922) [µg/mL] | MIC [6]; 968733 [µg/mL] | MIC ([7]; SSI #3010) [µg/mL] | MIC ([8]; ATCC 27853) [µg/mL] | Hemolysis at 200 μg/mL ([9]; red cells of human, 1 h, 200) [%] | MIC ([1]; Acinetobacter baumannii 872842 clinical isolate, Mueller-Hinton II broth) [µg/mL] | MIC ([2]; Acinetobacter baumannii DSM 30008, Mueller-Hinton II broth) [µg/mL] | MIC ([3]; Enterobacter cloacae 848840 clinical isolate, Mueller-Hinton II broth) [µg/mL] | MIC ([4]; Escherichia coli 926415 clinical isolate, Mueller-Hinton II broth) [µg/mL] | MIC ([5]; Escherichia coli ATCC 25922, Mueller-Hinton II broth) [µg/mL] | MIC ([6]; Klebsiella pneumoniae 968733 clinical isolate, Mueller-Hinton II broth) [µg/mL] | MIC ([7]; Klebsiella pneumoniae SSI #3010, Mueller-Hinton II broth) [µg/mL] | MIC ([8]; Pseudomonas aeruginosa ATCC 27853, Mueller-Hinton II broth) [µg/mL] | Hemolysis at 200 μg/mL ([9]; 200 μg/mL, human red blood cells) [%]
CC(C)C[C@@H]1NC(=O)[C@@H](CC(C)C)NC(=O)[C@H](CCN)NC(=O)[C@@H](NC(=O)[C@H](CCN)NC(=O)[C@@H](NC(=O)[C@H](CCN)NC(=O)CC[C@@H]2NC(=O)[C@H](CCN)NC(=O)[C@H]([C@@H](C)O)NC(=O)[C@@H](NC(=O)[C@@H](O)C(C)C)CSSC[C@@H](C(=O)N[C@H](CO)Cc3ccc(O)cc3)NC(=O)[C@H](C(C)(C)C)NC(=O)[C@H](CO)NC(=O)[C@H](Cc3c[nH]c4ccccc34)NC(=O)[C@H](CCO)NC(=O)[C@@H](CCN)NC2=O)[C@@H](C)O)CCNC(=O)[C@H]([C@@H](C)O)NC(=O)[C@H](CCN)NC(=O)[C@H](CCN)NC1=O [Ex. 93] (I: H-[Hiv]CT[Dab]E[dDab][hSer]WS[Tle]C-Tyrosinol / II: [Dab]T[Dab][Dab][Dab][dL]L[Dab][Dab]T; disulfide I:2-I:11; amide I:5-II:N; lactam II:4-II:C) | 0.5 (≈ 0.208 µM) | 0.25 (≈ 0.104 µM) | 0.25 (≈ 0.104 µM) | 0.25 (≈ 0.104 µM) | 0.125 (≈ 0.0521 µM) | 0.5 (≈ 0.208 µM) | 0.125 (≈ 0.0521 µM) | 0.25 (≈ 0.104 µM) | <1 |  |  |  |  |  |  |  |  | 
CC(=O)N[C@H](C(=O)N[C@H]1CSSC[C@@H](C(=O)N[C@H](CO)Cc2ccc(O)cc2)NC(=O)[C@H](C(C)(C)C)NC(=O)[C@H](CO)NC(=O)[C@H](Cc2c[nH]c3ccccc23)NC(=O)[C@H](CCO)NC(=O)[C@@H](CCN)NC(=O)[C@H](CCC(=O)N[C@@H](CCN)C(=O)N[C@H](C(=O)N[C@@H](CCN)C(=O)N[C@H]2CCNC(=O)[C@H]([C@@H](C)O)NC(=O)[C@H](CCN)NC(=O)[C@H](CCN)NC(=O)[C@H](CC(C)C)NC(=O)[C@@H](CC(C)C)NC(=O)[C@H](CCN)NC2=O)[C@@H](C)O)NC(=O)[C@H](CCN)NC(=O)[C@H](CO)NC1=O)C(C)C [Ex. 94] (I: Ac-VCS[Dab]E[dDab][hSer]WS[Tle]C-Tyrosinol / II: [Dab]T[Dab][Dab][Dab][dL]L[Dab][Dab]T; disulfide I:2-I:11; amide I:5-II:N; lactam II:4-II:C) |  |  |  |  |  |  |  |  |  | 0.25 (≈ 0.103 µM) | 0.125 (≈ 0.0515 µM) | 1 (≈ 0.412 µM) | 0.25 (≈ 0.103 µM) | 0.0625 (≈ 0.0257 µM) | 0.25 (≈ 0.103 µM) | 0.0625 (≈ 0.0257 µM) | 0.25 (≈ 0.103 µM) | <1
CC(C)C[C@@H]1NC(=O)[C@@H](CC(C)C)NC(=O)[C@H](CCN)NC(=O)[C@@H](NC(=O)[C@H](CCN)NC(=O)[C@@H](NC(=O)[C@H](CCN)NC(=O)CC[C@@H]2NC(=O)[C@H](CCN)NC(=O)[C@H](Cc3ccc(O)cc3)NC(=O)[C@@H](NC(=O)[C@@H](O)C(C)C)CSSC[C@@H](C(=O)NC(CO)CO)NC(=O)[C@H](C(C)(C)C)NC(=O)[C@H](CO)NC(=O)[C@H](Cc3c[nH]c4ccccc34)NC(=O)[C@H](CCO)NC(=O)[C@@H](CCN)NC2=O)[C@@H](C)O)CCNC(=O)[C@H]([C@@H](C)O)NC(=O)[C@H](CCN)NC(=O)[C@H](CCN)NC1=O [Ex. 95] (I: H-[Hiv]CY[Dab]E[dDab][hSer]WS[Tle]C-{NHCH(CH2OH)2} / II: [Dab]T[Dab][Dab][Dab][dL]L[Dab][Dab]T; disulfide I:2-I:11; amide I:5-II:N; lactam II:4-II:C) | 0.125 (≈ 0.0524 µM) | 0.0625 (≈ 0.0262 µM) | 4 (≈ 1.68 µM) | 0.125 (≈ 0.0524 µM) | 0.03125 (≈ 0.0131 µM) | 0.125 (≈ 0.0524 µM) | 0.125 (≈ 0.0524 µM) | 0.125 (≈ 0.0524 µM) | <1 |  |  |  |  |  |  |  |  | 
CC(=O)N[C@@H](Cc1ccc(O)cc1)C(=O)N[C@H]1CSSC[C@@H](C(=O)NC(CO)CO)NC(=O)[C@H](Cc2c[nH]c3ccccc23)NC(=O)[C@H](CO)NC(=O)[C@H](C(C)C)NC(=O)[C@H](CCO)NC(=O)[C@@H](CCN)NC(=O)[C@H](CCC(=O)N[C@@H](CCN)C(=O)N[C@H](C(=O)N[C@@H](CCN)C(=O)N[C@H]2CCNC(=O)[C@H]([C@@H](C)O)NC(=O)[C@H](CCN)NC(=O)[C@H](CCN)NC(=O)[C@H](CC(C)C)NC(=O)[C@@H](CC(C)C)NC(=O)[C@H](CCN)NC2=O)[C@@H](C)O)NC(=O)[C@H](CCN)NC(=O)[C@H](C(C)C)NC1=O [Ex. 98] (I: Ac-YCV[Dab]E[dDab][hSer]VSWC-{NHCH(CH2OH)2} / II: [Dab]T[Dab][Dab][Dab][dL]L[Dab][Dab]T; disulfide I:2-I:11; amide I:5-II:N; lactam II:4-II:C) | 2 (≈ 0.829 µM) | 0.25 (≈ 0.104 µM) | 2 (≈ 0.829 µM) | 2 (≈ 0.829 µM) | 0.125 (≈ 0.0518 µM) | 4 (≈ 1.66 µM) | 0.25 (≈ 0.104 µM) | 0.25 (≈ 0.104 µM) | <1 |  |  |  |  |  |  |  |  | 
